Data as given in patent US20030013041A1, “Optical data carrier comprising a cationic aminoheterocyclic dye as light-absorbent compound in the information layer” (priority 2001, published 2003).

Assays:
Assay type in all cases: physicochemical
[1] = Absorption spectrum measured in solution; conditions: for λmax (methylene chloride): in methylene chloride; for λ1/2-λ1/10 (long wavelength flank): on the long wavelength flank; for λ1/2-λ1/10 (short wavelength flank): on the short wavelength flank; for λmax (methanol): in methanol
From the text: In the case of a write-once optical data carrier according to the invention which is written on and read by means of the light of a blue laser, preference is also given to cationic aminoheterocyclic dyes whose absorption maximum λmax2 is in the range from 420 to 550 nm, where the wavelength λ½ at which the absorbance in the short wavelength flank of the absorption maximum at the wavelength λmax2 is half of the absorbance value at λmax2 and the wavelength λ 1/10 at which the absorbance in the short wavelength flank of the absorption maximum at the wavelength λmax2 is one tenth of the absorbance value at λmax2 are preferably not more than 50 nm apart. Such a cationic aminoheterocyclic dye preferably has no shorter-wavelength maximum λmax1 down to a wavelength of 350 nm, particularly preferably down to 320 nm, very particularly preferably down to 290 nm.
In the case of a write-once optical data carrier according to the invention which is written on and read by means of the light of a red laser, preference is given to cationic aminoheterocyclic dyes whose absorption maximum λmax2 is in the range from 500 to 650 nm, where the wavelength λ½ at which the absorbance in the long wavelength flank of the absorption maximum at the wavelength λmax2 is half of the absorbance value at λmax2 and the wavelength λ 1/10 at which the absorbance in the long wavelength flank of the absorption maximum at the wavelength λmax2 is one tenth of the absorbance value at λmax2 are preferably not more than 50 nm apart. Such a cationic aminoheterocyclic dye preferably has no longer-wavelength maximum λmax3 up to a wavelength of 750 nm, particularly preferably up to 800 nm, very particularly preferably up to 850 nm.
The absorption spectra are measured, for example, in solution.
Suitable cationic aminoheterocyclic dyes having the required spectral properties are, in particular, those in which the dipole moment change Δμ=|μg−μag|, i.e. the positive difference between the dipole moments in the ground state and in the first excited state, is very small, preferably <5 D, particularly preferably <2 D. A method of determining such a dipole moment change Ap is described, for example, in F. Wuirthner et al., Angew. Chem. 1997, 109, 2933, and in the literature cited therein. A low solvent-induced wavelength shift (methanol/methylene chloride) is likewise a suitable selection criterion. Preference is given to cationic aminoheterocyclic dyes whose solvent-induced wavelength shift Δλ=|λmethylene chloride−λmethanol|, i.e. the positive difference between the absorption wavelengths in the solvents methylene chloride and methanol, is <25 nm, particularly preferably <15 nm, very particularly preferably <5 nm.

Solubility in TFP = assay: Solubility in TFP
Film formation = assay: Film formation
From the text: Apart from the abovementioned optical properties, the writeable information layer comprising light-absorbent organic substances has to have a substantially amorphous morphology to keep the noise signal during writing or reading as small as possible. For this reason, it is particularly preferred that crystallization of the light-absorbent substances be prevented in the application of the substances by spin coating from a solution, by vapour deposition and/or sublimation during subsequent covering with metallic or dielectric layers under reduced pressure.

ε ([1]; at λmax in methylene chloride)	λmax (methylene chloride) [1]	λ1/2-λ1/10 (long wavelength flank) [1]	λ1/2-λ1/10 (short wavelength flank) [1]	ε ([1]; at λmax in methanol)	λmax (methanol) [1]	Solubility (Solubility in TFP)	Film appearance (Film formation)	ε ([1]; solvent not stated, printed after λmax in methanol and methylene chloride)	SMILES
		30 nm	41 nm	87 670 l/mol cm	551 nm	> 2%	Glass-like film		CN(C)c1ccc(/C=C/C2=[N+](C)c3ccccc3C2(C)C)o1 [Example 2]
98 554 l/mol cm	543 nm	14 nm	34 nm	68 555 l/mol cm	528 nm	> 2%	Glass-like film		CCCCN(CCCC)c1ccc(/C=C/C2=[N+](C)c3ccccc3C2(C)C)s1 [Example 3]

The remaining lines, values behind:

SMILES	ε ([1]; at λmax in methylene chloride)	λmax (methylene chloride) [1]	λ1/2-λ1/10 (long wavelength flank) [1]	λ1/2-λ1/10 (short wavelength flank) [1]	ε ([1]; at λmax in methanol)	λmax (methanol) [1]	Solubility (Solubility in TFP)	Film appearance (Film formation)	ε ([1]; solvent not stated, printed after λmax in methanol and methylene chloride)
CC1(C)C2=NC(=[N+]3CCCC3)SC2=Cc2sc(N3CCCC3)nc21 [Example 7]	37153 L/mol/cm	616 nm	27 nm	50 nm					
CN(C)c1ccc(/C=C2\SC(=[N+]3CCOCC3)N=C2c2ccccc2)cc1 [Example 4]	104 970 l/mol cm	601 nm	19 nm	42 nm			> 2%		
C(=C1/SC(=[N+]2CCOCC2)N=C1c1ccccc1)/c1sc(N2CCOCC2)nc1-c1ccccc1 [Example 1]		587 nm	14.5 nm	42 nm		581 nm	> 2%		102 800 l/mol cm
CN(c1ccccc1)c1nc2c(s1)C=C1S/C(=[N+](\C)c3ccccc3)N=C1C2(C)C [Example 8]	43650 L/mol/cm	623 nm							
